# Where “and” joins values, the source holds several entries; their conditions need not be identical. Equal values may be shown once. Where a name gives a salt, the structure may show the parent alone.
# How the values were obtained:
# [1] = Stability in the neat state at 40°C (positive chlorine by thiosulfate titration); assay type: physicochemical; settings: HYDROCHLORIDE
# Description: ^a Weight of sample analyzed.
# ^b Volume of 10^^-2 N sodium thiosulfate required to titrate
# the sample at time (T).
# ^c Percentage of positive chlorine in the sample analyzed.
# [2] = test system: Pseud. aeruginosa ATCC 9027; test: Bactericidal endpoint (time for complete sterilization), ATCC 9027; assay type: cell-based; settings: for Antibacterial activity, time, 9027: 0.5 M NaH2PO4 pH 7.0
# Description: (§1) The procedure employed to determine the antibacterial activity of 3-chloro-2,2,4,4-tetramethyl-tetrahydro1,3-oxazolidine and 3-chloro-2,2-[spiro-1'-methyl-4'-piperidinyl]-4,4-dimethyl-1,3-oxazolidinewas based primarily on a modification of the serial dilution method of analysis. However, instead of determining the minimum inhibitory concentration parameters for the compound investigated, applicants alternatively chose to determine the bactericidal endpoint for a given concentration of the compound investigated. Consequently, applicants' studies were established to determine the time required for complete sterilization of the micro-organism tested, when exposed to a given concentration of the compound investigated.
# (§2) A stock solution of each compound identified above was prepared using an appropriate buffered solution.
# (§3) For screening in the absence of a denaturing agent (e.g., horse serum) an equal volume of distilled water and the resulting solution was subjected to the screen.
# (§4) For screening in the presence of a denaturing agent, a volume of the stock solution was diluted using an equal volume of 10% horse serum. When necessary, the final solution was adjusted to the desired pH using 1N HCl and the solution was permitted to stand at room temperature for thirty minutes prior to the screening procedure.
# (§5) To 5 ml of the stock solution being evaluated, there was added 0.2 ml of an overnight broth culture containing the particular micro-organism being investigated (see above). At time intervals of 0.5, 1, 2, 3, 4, 5, . . . minutes, a loop of this suspension was subcultured into 5 ml of a sterile nutrient broth. All the samples were then incubated at 37°C for seven days with daily observation for evidence of bacterial growth. The time interval reported is for that sample in which no bacterial growth was observed after the incubation period.
# [3] = test system: Bord. bronchiseptica ATCC 4617; test: Bactericidal endpoint (time for complete sterilization), ATCC 4617; assay type: cell-based
# Description: as §1, §2, §3, §4, §5
# [4] = Stability analysis in buffered solution (half-life); assay type: physicochemical
# [5] = test system: Kleb. pneumoniae ATCC 10031; test: Bactericidal endpoint (time for complete sterilization), ATCC 10031; assay type: cell-based
# Description: as §1, §2, §3, §4, §5
# E. coli ATCC 10536 = test: Bactericidal endpoint (time for complete sterilization), ATCC 10536; assay type: cell-based
# Description: as §1, §2, §3, §4, §5
# [6] = test system: Staph. epidermidis ATCC 12228; test: Bactericidal endpoint (time for complete sterilization), ATCC 12228; assay type: cell-based
# Description: as §1, §2, §3, §4, §5
# Staph. aureus ATCC 6538 = test: Bactericidal endpoint (time for complete sterilization), ATCC 6538; assay type: cell-based
# Description: as §1, §2, §3, §4, §5
# 6501 = test: Bactericidal endpoint (time for complete sterilization), 6501; assay type: cell-based
# Description: as §1, §2, §3, §4, §5
# [7] = 0.1M Na2B4O7 pH 8.8, H2O, 8.13 × 10^-3 M (1333 ppm)
# [8] = 0.1M Na2B4O7 pH 8.8, Serum, 8.13 × 10^-3 M (1333 ppm)
# [9] = 0.1M NaH2PO4 pH 7.00, H2O, 8.92 × 10^-3 M (1463 ppm)
# [10] = 0.1M NaH2PO4 pH 7.00, Serum, 8.92 × 10^-3 M (1463 ppm)
# [11] = 0.1M NaOAc pH 4.6, H2O, 8.26 × 10^-3 M (1355 ppm)
# [12] = 0.1M NaOAc pH 4.6, Serum, 8.26 × 10^-3 M (1355 ppm)
# [13] = 0.1 M NaOAc pH 4.6, H2O, 6.52 × 10^-3 M (1428 ppm)
# [14] = 0.1 M NaOAc pH 4.6, Serum, 5.69 × 10^-3 M (1246 ppm)
# [15] = 0.5 M NaOAc pH 4.6, H2O, 21.00 × 10^-3 M (4578 ppm)
# [16] = 0.5 M NaOAc pH 4.6, Serum, 20.50 × 10^-3 M (4469 ppm)
# [17] = 0.5 M NaH2PO4 pH 7.0, H2O, 20.75 × 10^-3 M (4525 ppm)
# [18] = 0.5 M NaH2PO4 pH 7.0, Serum, 19.88 × 10^-3 M (4334 ppm)
smiles,measurement,setting,value
"CN1CCC2(CC1)OCC(C)(C)N2Cl [3-CHLORO-2,2-[SPIRO-1'-METHYL-4'-PIPERIDINIUM]4,4-DIMETHYL-1,3-OXAZOLIDINE HYDROCHLORIDE]",%Cl (percentage of positive chlorine in the sample analyzed),[1]; 0 days,13.7% and 13.1%
same,%Cl (percentage of positive chlorine in the sample analyzed),[1]; 1 day,12.3% and 12.5%
same,%Cl (percentage of positive chlorine in the sample analyzed),[1]; 2 days,12.3% and 11.9%
same,%Cl (percentage of positive chlorine in the sample analyzed),[1]; 3 days,12.5% and 12.2%
same,%Cl (percentage of positive chlorine in the sample analyzed),[1]; 4 days,12.1% and 12.3%
same,%Cl (percentage of positive chlorine in the sample analyzed),[1]; 5 days,12.3% and 12.4%
same,%Cl (percentage of positive chlorine in the sample analyzed),[1]; 7 days,12.2% and 12.1%
same,%Cl (percentage of positive chlorine in the sample analyzed),[1]; 10 days,11.9% and 11.8%
same,%Cl (percentage of positive chlorine in the sample analyzed),[1]; 14 days,12.1% and 11.8%
same,%Cl (percentage of positive chlorine in the sample analyzed),[1]; 21 days,12.0% and 12.1%
same,%Cl (percentage of positive chlorine in the sample analyzed),[1]; 28 days,11.5% and 11.6%
same,%Cl (percentage of positive chlorine in the sample analyzed),[1]; 35 days,11.8% and 11.6%
same,%Cl (percentage of positive chlorine in the sample analyzed),[1]; 51 days,9.5%
"CC1(C)COC(C)(C)N1Cl [3-chloro-2,2,4,4-tetramethyl-tetrahydro-1,3-oxazolidine]","Germicidal activity time, 9027",[2]; [7],2 min
same,"Germicidal activity time, 9027",[2]; [8],4 min
same,"Germicidal activity time, 9027",[2]; [9],1 min
same,"Germicidal activity time, 9027",[2]; [10],7 min
same,"Germicidal activity time, 9027",[2]; [11],0.5 min
same,"Germicidal activity time, 9027",[2]; [12],4 min
same,"Germicidal activity time, 4617",[3]; [7],3 min
same,"Germicidal activity time, 4617",[3]; [8],8 min
same,"Germicidal activity time, 4617",[3]; [9],1 min
same,"Germicidal activity time, 4617",[3]; [10],> 10 min
same,"Germicidal activity time, 4617",[3]; [11],0.5 min
same,"Germicidal activity time, 4617",[3]; [12],6 min
same,half-life at 1520 µM,"[4]; 0.1 M Na2B4O7 pH 9.3, 40 °C, initial concentration 1.52 × 10^-3 M",~5 h
same,half-life at 2490 µM,"[4]; 0.1 M Na2B4O7 pH 9.3, 40 °C, initial concentration 2.49 × 10^-3 M",~4.6 h
same,half-life at 5980 µM,"[4]; 0.1 M Na2B4O7 pH 9.3, 40 °C, initial concentration 5.98 × 10^-3 M",~3.3 h
same,half-life at 1680 µM,"[4]; 0.1 M NaH2PO4 pH 7.0, 40 °C, initial concentration 1.68 × 10^-3 M",~70 h
same,half-life at 3050 µM,"[4]; 0.1 M NaH2PO4 pH 7.0, 40 °C, initial concentration 3.05 × 10^-3 M",~54 h
same,half-life at 6700 µM,"[4]; 0.1 M NaH2PO4 pH 7.0, 40 °C, initial concentration 6.70 × 10^-3 M",~54 h
same,half-life at 1880 µM,"[4]; 0.1 M NaOAc pH 4.6, 40 °C, initial concentration 1.88 × 10^-3 M",2.2 h
same,half-life at 2590 µM,"[4]; 0.1 M NaOAc pH 4.6, 40 °C, initial concentration 2.59 × 10^-3 M",2.2 h
same,half-life at 5470 µM,"[4]; 0.1 M NaOAc pH 4.6, 40 °C, initial concentration 5.47 × 10^-3 M",2.6 h
same,half-life at 6230 µM,"[4]; H2O, initial concentration 6.23 × 10^-3 M",~58 h
same,"Germicidal activity time, 10031",[5]; [7],4 min
same,"Germicidal activity time, 10031",[5]; [8],9 min
same,"Germicidal activity time, 10031",[5]; [9],0.5 min
same,"Germicidal activity time, 10031",[5]; [10],5 min
same,"Germicidal activity time, 10031",[5]; [11],0.5 min
same,"Germicidal activity time, 10031",[5]; [12],> 10 min
same,"Germicidal activity time, 10536",E. coli ATCC 10536; [7],2 min
same,"Germicidal activity time, 10536",E. coli ATCC 10536; [8],4 min
same,"Germicidal activity time, 10536",E. coli ATCC 10536; [9],0.5 min
same,"Germicidal activity time, 10536",E. coli ATCC 10536; [10],3 min
same,"Germicidal activity time, 10536",E. coli ATCC 10536; [11],0.5 min
same,"Germicidal activity time, 10536",E. coli ATCC 10536; [12],3 min
same,"Germicidal activity time, 12228",[6]; [7],> 5 min
same,"Germicidal activity time, 12228",[6]; [8],> 10 min
same,"Germicidal activity time, 12228",[6]; [9],1 min
same,"Germicidal activity time, 12228",[6]; [10],6 min
same,"Germicidal activity time, 12228",[6]; [11],0.5 min
same,"Germicidal activity time, 12228",[6]; [12],> 10 min
same,"Germicidal activity time, 6538",Staph. aureus ATCC 6538; [7],> 5 min
same,"Germicidal activity time, 6538",Staph. aureus ATCC 6538; [8],> 10 min
same,"Germicidal activity time, 6538",Staph. aureus ATCC 6538; [9],3 min
same,"Germicidal activity time, 6538",Staph. aureus ATCC 6538; [10],> 10 min
same,"Germicidal activity time, 6538",Staph. aureus ATCC 6538; [11],0.5 min
same,"Germicidal activity time, 6538",Staph. aureus ATCC 6538; [12],> 10 min
"CN1CCC2(CC1)OCC(C)(C)N2Cl [3-chloro-2,2-[spiro-1'-methyl-4'-piperidinyl]-4,4-dimethyl-1,3-oxazolidine]","Antibacterial activity, time, 9025",[2]; [13],0.5 min
same,"Antibacterial activity, time, 9025",[2]; [14],> 10 min
same,"Antibacterial activity, time, 9027","[2]; H2O, 20.75 × 10^-3 M (4525 ppm)",1 min
same,"Antibacterial activity, time, 9027","[2]; Serum, 19.88 × 10^-3 M (4334 ppm)",10 min
same,"Antibacterial activity, time, 9025",[2]; [15],0.5 min
same,"Antibacterial activity, time, 9025",[2]; [16],1 min
same,"Antibacterial activity, time, 4617",[3]; [17],0.5 min
same,"Antibacterial activity, time, 4617",[3]; [18],5 min
same,"Antibacterial activity, time, 4617",[3]; [15],0.5 min
same,"Antibacterial activity, time, 4617",[3]; [16],1 min
same,"Antibacterial activity, time, 10031",[5]; [13],0.5 min
same,"Antibacterial activity, time, 10031",[5]; [14],7 min
same,"Antibacterial activity, time, 10031",[5]; [17],1 min
same,"Antibacterial activity, time, 10031",[5]; [18],8 min
same,"Antibacterial activity, time, 10031",[5]; [15],0.5 min
same,"Antibacterial activity, time, 10031",[5]; [16],0.5 min
same,"Antibacterial activity, time, 6501",6501; [13],0.5 min
same,"Antibacterial activity, time, 6501",6501; [14],3 min
same,"Antibacterial activity, time, 6501",6501; [17],1 min
same,"Antibacterial activity, time, 6501",6501; [18],7 min
same,"Antibacterial activity, time, 6501",6501; [15],0.5 min
same,"Antibacterial activity, time, 6501",6501; [16],0.5 min
same,"Antibacterial activity, time, 10536",E. coli ATCC 10536; [13],0.5 min
same,"Antibacterial activity, time, 10536",E. coli ATCC 10536; [14],2 min
same,"Antibacterial activity, time, 10536",E. coli ATCC 10536; [17],0.5 min
same,"Antibacterial activity, time, 10536",E. coli ATCC 10536; [18],7 min
same,"Antibacterial activity, time, 10536",E. coli ATCC 10536; [15],0.5 min
same,"Antibacterial activity, time, 10536",E. coli ATCC 10536; [16],0.5 min
same,"Antibacterial activity, time, 12228",[6]; [13],1 min
same,"Antibacterial activity, time, 12228",[6]; [14],> 10 min
same,"Antibacterial activity, time, 12228",[6]; [17],1 min
same,"Antibacterial activity, time, 12228",[6]; [18],5 min
same,"Antibacterial activity, time, 12228",[6]; [15],0.5 min
same,"Antibacterial activity, time, 12228",[6]; [16],2 min
same,"Antibacterial activity, time, 6538",Staph. aureus ATCC 6538; [13],5 min
same,"Antibacterial activity, time, 6538",Staph. aureus ATCC 6538; [14],> 10 min
same,"Antibacterial activity, time, 6538",Staph. aureus ATCC 6538; [17],1 min
same,"Antibacterial activity, time, 6538",Staph. aureus ATCC 6538; [18],> 10 min
same,"Antibacterial activity, time, 6538",Staph. aureus ATCC 6538; [15],0.5 min
same,"Antibacterial activity, time, 6538",Staph. aureus ATCC 6538; [16],3 min
